From ChEMBL document CHEMBL1201862, “PubChem BioAssay data set” (2004)
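Briefly, cells in 96-well plates were exposed to five compound concentrations for 48 h, and endpoints were estimated by linear interpolation. Here, GI50 denotes the concentration required for 50% inhibition of growth.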 The source made the active and inactive calls. Cut-off read from the data, not from the text of the source: active = GI50 up to about 1.1 µM and inactive = higher.

Key:
Assay in all cases: NCI-60 cell line screen, 48 h
SK-MEL-5 = tested on: SK-MEL-5
SK-MEL-2 = tested on: SK-MEL-2
SF-268 = tested on: SF-268
OVCAR-4 = tested on: OVCAR-4
LOX IMVI = tested on: LOX IMVI
A549 = tested on: A549
UO-31 = tested on: UO-31
NCI-H460 = tested on: NCI-H460
COLO 205 = tested on: COLO 205
M14 = tested on: M14
786-0 = tested on: 786-0
NCI-H226 = tested on: NCI-H226
OVCAR-8 = tested on: OVCAR-8
CAKI-1 = tested on: CAKI-1
DMS-273 = tested on: DMS-273
SN12C = tested on: SN12C
HOP-18 = tested on: HOP-18
SF-295 = tested on: SF-295
NCI-H23 = tested on: NCI-H23
UACC-257 = tested on: UACC-257
EKVX = tested on: EKVX
HT-29 = tested on: HT-29
NCI-H522 = tested on: NCI-H522
SNB-75 = tested on: SNB-75
SK-OV-3 = tested on: SK-OV-3
K562 = tested on: K562
SNB-19 = tested on: SNB-19
U-251 = tested on: U-251
KM12 = tested on: KM12
IGROV-1 = tested on: IGROV-1
A498 = tested on: A498
DMS-114 = tested on: DMS-114
Malme-3M = tested on: Malme-3M
CCRF-CEM = tested on: CCRF-CEM
RXF 631 = tested on: RXF 631
MOLT-4 = tested on: MOLT-4
OVCAR-3 = tested on: OVCAR-3
M19-MEL = tested on: M19-MEL
DLD-1 = tested on: DLD-1
SW-620 = tested on: SW-620
HCC 2998 = tested on: HCC 2998
SNB-78 = tested on: SNB-78
OVCAR-5 = tested on: OVCAR-5
HL-60 = tested on: HL-60
XF498 = tested on: XF498
ACHN = tested on: ACHN
HOP-62 = tested on: HOP-62
UACC-62 = tested on: UACC-62
HCT-15 = tested on: HCT-15
SF-539 = tested on: SF-539
LXFL 529 = tested on: LXFL 529
RPMI-8226 = tested on: RPMI-8226
TK-10 = tested on: TK-10
KM-20L2 = tested on: KM-20L2
SK-MEL-28 = tested on: SK-MEL-28
RXF 393 = tested on: RXF 393
HCT-116 = tested on: HCT-116
HOP-92 = tested on: HOP-92

COc1ccc(-c2c(N)[n+]([O-])c3cc(C)c(C)cc3[n+]2[O-])cc1OC
GI50 (SK-MEL-5): 30.9 µM (inactive)
GI50 (SK-MEL-2): 66.8 µM (inactive)
GI50 (SF-268): 43.8 µM (inactive)
GI50 (OVCAR-4): > 100 µM (inactive)
GI50 (LOX IMVI): > 100 µM (inactive)
GI50 (A549): > 100 µM (inactive)
GI50 (UO-31): 54 µM (inactive)
GI50 (NCI-H460): > 100 µM (inactive)
GI50 (COLO 205): 22.3 µM (inactive)
GI50 (M14): 55.6 µM (inactive)
GI50 (786-0): > 100 µM (inactive)
GI50 (NCI-H226): > 100 µM (inactive)
GI50 (OVCAR-8): > 100 µM (inactive)
GI50 (CAKI-1): 37.8 µM (inactive)
GI50 (DMS-273): 99.3 µM (inactive)
GI50 (SN12C): > 100 µM (inactive)
GI50 (HOP-18): 28.8 µM (inactive)
GI50 (SF-295): > 100 µM (inactive)
GI50 (NCI-H23): 34 µM (inactive)
GI50 (UACC-257): 41.5 µM (inactive)
GI50 (EKVX): > 100 µM (inactive)
GI50 (HT-29): 73.1 µM (inactive)
GI50 (NCI-H522): 17.5 µM (inactive)
GI50 (SNB-75): 36.4 µM (inactive)
GI50 (SK-OV-3): > 100 µM (inactive)
GI50 (K562): 69.7 µM (inactive)
GI50 (SNB-19): 91.2 µM (inactive)
GI50 (U-251): 67.3 µM (inactive)
GI50 (KM12): > 100 µM (inactive)
GI50 (IGROV-1): > 100 µM (inactive)
GI50 (A498): > 100 µM (inactive)
GI50 (DMS-114): 25.5 µM (inactive)
GI50 (Malme-3M): > 100 µM (inactive)
GI50 (CCRF-CEM): 78 µM (inactive)
GI50 (RXF 631): 20.4 µM (inactive)
GI50 (MOLT-4): 78.3 µM (inactive)
GI50 (OVCAR-3): > 100 µM (inactive)
GI50 (M19-MEL): 72.3 µM (inactive)
GI50 (DLD-1): 85.7 µM (inactive)
GI50 (SW-620): 74.8 µM (inactive)
GI50 (HCC 2998): > 100 µM (inactive)
GI50 (SNB-78): > 100 µM (inactive)
GI50 (OVCAR-5): > 100 µM (inactive)
GI50 (HL-60): 46.3 µM (inactive)
GI50 (XF498): > 100 µM (inactive)
GI50 (ACHN): > 100 µM (inactive)
GI50 (HOP-62): > 100 µM (inactive)
GI50 (UACC-62): 41.4 µM (inactive)
GI50 (HCT-15): 48.6 µM
GI50 (SF-539): 33.9 µM (inactive)
GI50 (LXFL 529): 58.5 µM (inactive)
GI50 (RPMI-8226): > 100 µM (inactive)
GI50 (TK-10): > 100 µM (inactive)
GI50 (KM-20L2): 54.3 µM (inactive)
GI50 (SK-MEL-28): 38.5 µM (inactive)

N=C(N)NS(=O)(=O)c1ccc(NC(=O)c2cccc3c(Nc4ccc(S(=O)(=O)N=C(N)N)cc4)c4ccccc4nc23)cc1
GI50 (SK-MEL-5): 22.2 µM (inactive)
GI50 (SK-MEL-2): > 100 µM (inactive)
GI50 (SF-268): 62.5 µM (inactive)
GI50 (OVCAR-4): 26.6 µM (inactive)
GI50 (LOX IMVI): 43.3 µM (inactive)
GI50 (A549): 79.1 µM (inactive)
GI50 (UO-31): > 100 µM (inactive)
GI50 (NCI-H460): > 100 µM (inactive)
GI50 (COLO 205): 31.3 µM (inactive)
GI50 (M14): 50.8 µM (inactive)
GI50 (786-0): 50.9 µM (inactive)
GI50 (OVCAR-8): 32.3 µM (inactive)
GI50 (CAKI-1): > 10 µM (inactive)
GI50 (DMS-273): 55.2 µM (inactive)
GI50 (SN12C): > 100 µM (inactive)
GI50 (HOP-18): > 100 µM (inactive)
GI50 (SF-295): 88.1 µM (inactive)
GI50 (NCI-H23): 44.3 µM (inactive)
GI50 (RXF 393): 99.1 µM (inactive)
GI50 (UACC-257): > 100 µM (inactive)
GI50 (EKVX): 71 µM (inactive)
GI50 (HT-29): 42.1 µM (inactive)
GI50 (NCI-H522): 7.94 µM (inactive)
GI50 (SNB-75): 6.05 µM (inactive)
GI50 (SK-OV-3): 72.6 µM (inactive)
GI50 (K562): 5.98 µM (inactive)
GI50 (SNB-19): > 100 µM (inactive)
GI50 (U-251): 28.8 µM (inactive)
GI50 (KM12): 33.4 µM (inactive)
GI50 (IGROV-1): 70.5 µM (inactive)
GI50 (HCT-116): 38 µM (inactive)
GI50 (A498): 47.4 µM (inactive)
GI50 (DMS-114): 24.9 µM (inactive)
GI50 (Malme-3M): > 100 µM (inactive)
GI50 (CCRF-CEM): 43.9 µM (inactive)
GI50 (RXF 631): > 100 µM (inactive)
GI50 (MOLT-4): 35.7 µM (inactive)
GI50 (OVCAR-3): 50.1 µM (inactive)
GI50 (M19-MEL): 47.4 µM (inactive)
GI50 (DLD-1): 92.9 µM (inactive)
GI50 (SW-620): 31.4 µM (inactive)
GI50 (SNB-78): 24.8 µM (inactive)
GI50 (OVCAR-5): > 100 µM (inactive)
GI50 (HL-60): 27 µM (inactive)
GI50 (HOP-92): > 100 µM (inactive)
GI50 (XF498): > 100 µM (inactive)
GI50 (ACHN): 51.1 µM (inactive)
GI50 (HOP-62): > 100 µM (inactive)
GI50 (UACC-62): 45.8 µM (inactive)
GI50 (HCT-15): > 100 µM
GI50 (SF-539): 41.1 µM (inactive)
GI50 (LXFL 529): 26.5 µM (inactive)
GI50 (RPMI-8226): > 100 µM (inactive)
GI50 (TK-10): 52 µM (inactive)
GI50 (KM-20L2): 37.5 µM (inactive)
GI50 (SK-MEL-28): 82.8 µM (inactive)
